The NIST ThermoML archive (doi:10.1021/je8008073)
Numbers after ± are expanded uncertainties.

Assay: wn = mass fraction of the nth substance listed
Settings: Liquid; for mass density: Vibrating tube method; for viscosity: Falling or rolling sphere viscometry

CC(C)Cc1ccccc1 [(2-methylpropyl)benzene] + c1ccc2c(c1)CCCC2
Settings | mass density [kg/m3] | viscosity [mPa·s]
293.15 K, 100 kPa, w2 = 0.5 | 907.9 ± 1 | –
293.15 K, 2000 kPa, w2 = 0.5 | 909.1 ± 1 | –
293.15 K, 4000 kPa, w2 = 0.5 | 910.3 ± 1 | –
293.15 K, 6000 kPa, w2 = 0.5 | 911.6 ± 1 | –
293.15 K, 8000 kPa, w2 = 0.5 | 913 ± 1 | –
293.15 K, 10000 kPa, w2 = 0.5 | 914.3 ± 1 | –
293.15 K, 12000 kPa, w2 = 0.5 | 915.4 ± 1 | –
293.15 K, 14000 kPa, w2 = 0.5 | 916.6 ± 1 | –
293.15 K, 16000 kPa, w2 = 0.5 | 917.7 ± 1 | –
293.15 K, 18000 kPa, w2 = 0.5 | 918.8 ± 1 | –
293.15 K, 20000 kPa, w2 = 0.5 | 920.1 ± 1 | –
295.65 K, 100 kPa, w2 = 0.5 | 905.7 ± 1 | –
295.65 K, 2000 kPa, w2 = 0.5 | 906.8 ± 1 | –
295.65 K, 4000 kPa, w2 = 0.5 | 908.1 ± 1 | –
295.65 K, 6000 kPa, w2 = 0.5 | 909.3 ± 1 | –
295.65 K, 8000 kPa, w2 = 0.5 | 910.6 ± 1 | –
295.65 K, 10000 kPa, w2 = 0.5 | 911.9 ± 1 | –
295.65 K, 12000 kPa, w2 = 0.5 | 913.1 ± 1 | –
295.65 K, 14000 kPa, w2 = 0.5 | 914.3 ± 1 | –
295.65 K, 16000 kPa, w2 = 0.5 | 915.4 ± 1 | –
295.65 K, 18000 kPa, w2 = 0.5 | 916.6 ± 1 | –
295.65 K, 20000 kPa, w2 = 0.5 | 917.7 ± 1 | –
298.15 K, 100 kPa, w2 = 0.48 | 901.3 ± 1 | –
298.15 K, 100 kPa, w2 = 0.49 | 902.5 ± 1 | –
298.15 K, 100 kPa, w2 = 0.5 | 903.6 ± 1 | 1.33 ± 0.05
298.15 K, 100 kPa, w2 = 0.51 | 905 ± 1 | –
298.15 K, 100 kPa, w2 = 0.52 | 906 ± 1 | –
298.15 K, 2000 kPa, w2 = 0.48 | 902.6 ± 1 | –
298.15 K, 2000 kPa, w2 = 0.49 | 903.8 ± 1 | –
298.15 K, 2000 kPa, w2 = 0.5 | 904.7 ± 1 | –
298.15 K, 2000 kPa, w2 = 0.51 | 906.2 ± 1 | –
298.15 K, 2000 kPa, w2 = 0.52 | 907.3 ± 1 | –
298.15 K, 4000 kPa, w2 = 0.48 | 904 ± 1 | –
298.15 K, 4000 kPa, w2 = 0.49 | 905.1 ± 1 | –
298.15 K, 4000 kPa, w2 = 0.5 | 906.1 ± 1 | 1.37 ± 0.06
298.15 K, 4000 kPa, w2 = 0.51 | 907.6 ± 1 | –
298.15 K, 4000 kPa, w2 = 0.52 | 908.8 ± 1 | –
298.15 K, 6000 kPa, w2 = 0.48 | 905.3 ± 1 | –
298.15 K, 6000 kPa, w2 = 0.49 | 906.4 ± 1 | –
298.15 K, 6000 kPa, w2 = 0.5 | 907.5 ± 1 | –
298.15 K, 6000 kPa, w2 = 0.51 | 908.8 ± 1 | –
298.15 K, 6000 kPa, w2 = 0.52 | 910 ± 1 | –
298.15 K, 8000 kPa, w2 = 0.48 | 906.6 ± 1 | –
298.15 K, 8000 kPa, w2 = 0.49 | 907.7 ± 1 | –
298.15 K, 8000 kPa, w2 = 0.5 | 908.8 ± 1 | –
298.15 K, 8000 kPa, w2 = 0.51 | 910.1 ± 1 | –
298.15 K, 8000 kPa, w2 = 0.52 | 911.2 ± 1 | –
298.15 K, 10000 kPa, w2 = 0.48 | 907.8 ± 1 | –
298.15 K, 10000 kPa, w2 = 0.49 | 909 ± 1 | –
298.15 K, 10000 kPa, w2 = 0.5 | 910.1 ± 1 | 1.43 ± 0.06
298.15 K, 10000 kPa, w2 = 0.51 | 911.2 ± 1 | –
298.15 K, 10000 kPa, w2 = 0.52 | 912.4 ± 1 | –
298.15 K, 12000 kPa, w2 = 0.48 | 909 ± 1 | –
298.15 K, 12000 kPa, w2 = 0.49 | 910.2 ± 1 | –
298.15 K, 12000 kPa, w2 = 0.5 | 911.3 ± 1 | –
298.15 K, 12000 kPa, w2 = 0.51 | 912.5 ± 1 | –
298.15 K, 12000 kPa, w2 = 0.52 | 913.6 ± 1 | –
298.15 K, 14000 kPa, w2 = 0.48 | 910.2 ± 1 | –
298.15 K, 14000 kPa, w2 = 0.49 | 911.5 ± 1 | –
298.15 K, 14000 kPa, w2 = 0.5 | 912.5 ± 1 | –
298.15 K, 14000 kPa, w2 = 0.51 | 913.7 ± 1 | –
298.15 K, 14000 kPa, w2 = 0.52 | 914.8 ± 1 | –
298.15 K, 16000 kPa, w2 = 0.48 | 911.4 ± 1 | –
298.15 K, 16000 kPa, w2 = 0.49 | 912.6 ± 1 | –
298.15 K, 16000 kPa, w2 = 0.5 | 913.7 ± 1 | –
298.15 K, 16000 kPa, w2 = 0.51 | 915 ± 1 | –
298.15 K, 16000 kPa, w2 = 0.52 | 916 ± 1 | –
298.15 K, 18000 kPa, w2 = 0.48 | 912.6 ± 1 | –
298.15 K, 18000 kPa, w2 = 0.49 | 913.7 ± 1 | –
298.15 K, 18000 kPa, w2 = 0.5 | 914.9 ± 1 | –
298.15 K, 18000 kPa, w2 = 0.51 | 916.1 ± 1 | –
298.15 K, 18000 kPa, w2 = 0.52 | 917.1 ± 1 | –
298.15 K, 20000 kPa, w2 = 0.48 | 913.8 ± 1 | –
298.15 K, 20000 kPa, w2 = 0.49 | 914.9 ± 1 | –
298.15 K, 20000 kPa, w2 = 0.5 | 916.1 ± 1 | –
298.15 K, 20000 kPa, w2 = 0.51 | 917.2 ± 1 | –
298.15 K, 20000 kPa, w2 = 0.52 | 918.2 ± 1 | –
300.65 K, 100 kPa, w2 = 0.5 | 901.5 ± 1 | –
300.65 K, 2000 kPa, w2 = 0.5 | 902.9 ± 1 | –
300.65 K, 4000 kPa, w2 = 0.5 | 904.2 ± 1 | –
300.65 K, 6000 kPa, w2 = 0.5 | 905.4 ± 1 | –
300.65 K, 8000 kPa, w2 = 0.5 | 906.8 ± 1 | –
300.65 K, 10000 kPa, w2 = 0.5 | 908 ± 1 | –
300.65 K, 12000 kPa, w2 = 0.5 | 909.2 ± 1 | –
300.65 K, 14000 kPa, w2 = 0.5 | 910.4 ± 1 | –
300.65 K, 16000 kPa, w2 = 0.5 | 911.6 ± 1 | –
300.65 K, 18000 kPa, w2 = 0.5 | 912.8 ± 1 | –
300.65 K, 20000 kPa, w2 = 0.5 | 914 ± 1 | –
303.15 K, 100 kPa, w2 = 0.5 | 900 ± 1 | –
303.15 K, 2000 kPa, w2 = 0.5 | 901.3 ± 1 | –
303.15 K, 4000 kPa, w2 = 0.5 | 902.6 ± 1 | –
303.15 K, 6000 kPa, w2 = 0.5 | 904 ± 1 | –
303.15 K, 8000 kPa, w2 = 0.5 | 905.3 ± 1 | –
303.15 K, 10000 kPa, w2 = 0.5 | 906.5 ± 1 | –
303.15 K, 12000 kPa, w2 = 0.5 | 907.8 ± 1 | –
303.15 K, 14000 kPa, w2 = 0.5 | 909 ± 1 | –
303.15 K, 16000 kPa, w2 = 0.5 | 910.3 ± 1 | –
303.15 K, 18000 kPa, w2 = 0.5 | 911.4 ± 1 | –
303.15 K, 20000 kPa, w2 = 0.5 | 912.6 ± 1 | –
